# Results as given in paper PMC10834624, “Estrogen receptor α interaction of zearalenone and its phase I metabolite α-zearalenol in combination with soy isoflavones in hERα-HeLa-9903 cells” (Mycotoxin Research, 2023).
# Like-named read-outs stand apart in the source and are kept apart here.
# Key:
# [1] = test system: hERα-HeLa-9903 cells; test: Sulforhodamine B (SRB) assay, cell protein amount; format: cell-based, human; settings: 10 µM 4-OH-TAM, 24 h
# Description: The SRB assay was conducted immediately after the CTB assay. Following the removal of the remaining CTB solution the cells in each well were fixed with 10 µL of a 50% trichloroacetic acid solution in distilled water. The 96-well plates were placed for 1 h into the refrigerator at 4 °C. Upon this cold incubation, the plates were carefully rinsed twice with tap water and then left to dry in a dark surrounding. Once the plates had dried, 50 µL of the SRB solution was pipetted into each well. The dye was left to stain the proteins for 1 h, again in a dark setting at room temperature. Afterwards the dye was rinsed off twice with tap water and twice with a 1% acetic acid solution. […] Once the plates had dried, the SRB solution bound to the protein components of the cells was dissolved in 100 µL of an alkaline Tris base solution (0.30 g tris(hydroxymethyl-) aminomethane solved in 250 mL distilled water) by shaking for 5 min in the plate reader (Victor V3 1240 Multilabel Counter from Perkin Elmer (Waltham/MA, USA) or the Cytation 3 Cell Imaging Multi-Mode Reader from Biotek® (Winooski/VT Vermont, USA)). Subsequently, the absorbance was measured at 570 nm and as for the CTB; the final results were referred to the solvent control (0.1% DMSO) in percentage.
# [2] = target: T1, ERα (hERα-HeLa-9903 cells) (Homo sapiens, UniProt P03372); test: cell-based; format: cell-based; settings: for Luciferase induction: 1 nM E2=100%; for induced ERα-dependent luciferase expression in concentrations above: abstract; for concentration at which an increase in luciferase activity was initiated: discussion
# T1 construct: host or cells: hERα-HeLa-9903 (modified human cervical HeLa cell line)
# Description: The assays were performed in 96-well plates following the instructions of the manufacturer (Promega [2007]). Per well, 10,000 hERα-HeLa-9903 cells in assay medium were seeded and grown for 3 h. […] The substances were previously dissolved in DMSO in […] higher concentrations than the tested concentration, followed by dilution in the assay medium. In case of single substance testing and for the solvent control, DMSO was added to reach 0.1% in the final incubation solutions. Concentrations ranged from 0.001 to 100 nM in case of ZEN and its metabolites and 0.001 to 100 µM in case of ISF, with 1:10 dilution steps in between. […] All experiments were performed in technical triplicates and at least five independent biological replicates.
# Following the 24-h incubation, the supernatants were discarded and 100 µL of a ONE-Glo™ EX luciferase incubation solution (1:1 dilution of OGL reagent and EMEM (5% CD-FBS)) was added and shaken for 5 min. Subsequently, 90 µL of the supernatant of each well was transferred to a new, white 96-well plate. The luminescence of the white plate was directly measured with a gain of 140 using the Victor V3 1240 Multilabel Counter from Perkin Elmer (Waltham/MA, USA) or the Cytation 3 Cell Imaging Multi-Mode Reader from Biotek® (Winooski/VT, USA).
# [3] = test system: hERα-HeLa-9903 cells
# [4] = test system: firefly luciferase encoding gene (hERα-HeLa-9903 cells); test: RT-qPCR of luciferase mRNA; format: cell-based, human; settings: 10 nM, 24 h
# Description: For the RT-qPCR, cells (hERα-HeLa-9903) were seeded in assay medium in 12-well plates at a density of 150,000 cells and allowed to grow for 24 h. Incubation solutions contained 0.1% DMSO and the test compounds and compound mixtures at various concentrations. After the same incubation time as the OGL-assay (24 h), cells were washed and subsequently the total RNA was extracted following the RNeasy Mini Kit protocol from Qiagen. The following reverse transcription was performed according to the QuantiTect-Reverse-Transcription manual (Qiagen [2009]) to transcribe 1 µg RNA to cDNA. Then, RT-qPCR was performed using primers for the firefly luciferase encoding gene with the following oligonucleotide sequences for reverse primer 5′-[…]-3′ and forward primer 5′-[…]-3′, as well as the endogenous control primers delta-aminolevulinate synthase (1HS_ALAS1_1_SG, QT00073122), actin beta (Hs_ACTB_1_SG, QT00095431) and glyceraldehyde-3-phosphate dehydrogenase (Hs_GAPDH_1_SG, QT00079247) with SYBR green as fluorescent probe. The amplification the following setting was applied: 95 °C for 2 min, followed by 40 repetition cycles of: 95 °C (15 s), 55 °C (15 s), 72 °C (60 s). […] Quantification was performed according to Livak and Schmittgen ([2001]) using the 2-ΔΔCt method resulting in the depiction of fold-changes in comparison to the solvent control.
# [5] = test system: Ishikawa cells, expressing ERα and ERβ; settings: 0.001–0.01 nM with GEN, DAI or EQ 0.001–0.1 µM; ref Grgic et al. [2022]; cited from earlier work
# [6] = single mycoestrogen 100 nM, 24 h
# T1 sequence (P03372 whole entry): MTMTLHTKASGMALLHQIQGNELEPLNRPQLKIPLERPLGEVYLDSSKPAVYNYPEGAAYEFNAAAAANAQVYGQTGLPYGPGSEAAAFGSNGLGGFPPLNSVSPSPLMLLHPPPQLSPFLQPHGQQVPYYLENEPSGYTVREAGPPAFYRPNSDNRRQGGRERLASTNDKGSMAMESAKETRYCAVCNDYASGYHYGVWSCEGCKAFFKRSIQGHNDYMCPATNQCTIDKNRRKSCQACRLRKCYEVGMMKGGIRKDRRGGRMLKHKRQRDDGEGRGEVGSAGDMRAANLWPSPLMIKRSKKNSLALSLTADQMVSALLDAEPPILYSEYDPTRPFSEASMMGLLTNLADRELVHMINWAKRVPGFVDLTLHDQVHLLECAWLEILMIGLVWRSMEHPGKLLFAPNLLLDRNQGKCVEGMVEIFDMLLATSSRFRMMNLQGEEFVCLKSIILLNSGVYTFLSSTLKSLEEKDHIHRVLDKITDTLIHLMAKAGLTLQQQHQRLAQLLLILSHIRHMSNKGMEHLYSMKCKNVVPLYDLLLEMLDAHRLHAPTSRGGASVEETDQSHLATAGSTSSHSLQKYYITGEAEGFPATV
structure (smiles),measurement,setting,value
"CC/C(=C(\c1ccc(O)cc1)c1ccc(OCCN(C)C)cc1)c1ccccc1 [4-OH-TAM, (Z)-4-hydroxytamoxifen]",protein content (SRB),[1],tendency to decrease the protein content
"O=c1c(-c2ccc(O)cc2)coc2cc(O)ccc12 [DAI, daidzein]",transcriptional activity compared to E2 after calculating the difference between 4-OH-TAM treated and untreated samples,[2],higher transcriptional activity
same,metabolic activity (CTB) vs solvent control,[3],no significant difference was observed
"Oc1ccc([C@H]2COc3cc(O)ccc3C2)cc1 [EQ, S-equol]",EC50,"[2]; isoflavones, 24 h, read-out: EC50 (sigmoidal dose-response curve fit of luciferase induction)",1600 ± 200 nM
same,Luciferase induction,"[2]; single isoflavone 10 μM, 24 h",334%
same,metabolic activity (CTB) vs solvent control,[3],no significant difference was observed
"O=c1c(-c2ccc(O)cc2)coc2cc(O)cc(O)c12 [GEN, genistein]",metabolic activity (CTB) vs solvent control,[3],no significant difference was observed
"C[C@H]1CCCC(=O)CCC/C=C/c2cc(O)cc(O)c2C(=O)O1 [ZEN, zearalenone]",EC50,[2],24.4 ± 0.4 nM
same,induced ERα-dependent luciferase expression in concentrations above,[2],above 1 nM
same,concentration at which an increase in luciferase activity was initiated,[2],0.1 nM
same,Luciferase induction,[2]; [6],86%
same,luciferase mRNA levels,[4],induce luciferase mRNA levels significantly
same,estrogenic response in combination compared to single substances,[5],significantly enhanced the estrogenic response
"C[C@H]1CCC[C@H](O)CCC/C=C/c2cc(O)cc(O)c2C(=O)O1 [α-ZEL, α-zearalenol]",potency to induce luciferase compared to ZEN,[2]; 0.01 to 10 nM,higher potency
same,induced ERα-dependent luciferase expression in concentrations above,[2],> 10 pM
same,concentration at which an increase in luciferase activity was initiated,[2],0.01 nM
same,EC50,"[2]; mycoestrogens, 24 h, read-out: EC50 (sigmoidal dose-response curve fit of luciferase induction)",0.057 ± 0.004 nM
same,Luciferase induction,[2]; [6],95%
same,estrogenic response in combination compared to single substances,[5],significantly enhanced the estrogenic response
C[C@H]1CCC[C@H](O)CCCCCc2cc(O)cc(O)c2C(=O)O1 [α-zearalanol],estrogenic response in combination compared to single substances,[5],significantly enhanced the estrogenic response
